In brackets after ≈: the same amount, converted by molar mass. Where no end group is shown, it is not given here.
Experiments:
ACE-1 enzyme = ACE-1 enzyme (Homo sapiens, UniProt P12821); test: ACE-1 inhibition assay (colorimetric kit)
Procedure: Therefore, the ability of the LF-derived peptides to inhibit ACE-1 was evaluated.
The activity of the ACE-1 enzyme was measured using a colorimetric ACE-1 Inhibitor Screening Kit (Abcam) with minor modifications to the manufacturer’s instructions. Briefly, in a 96-well plate, 12.5 µL of peptide’s aqueous solutions at different concentrations (100–0.1 µg/mL) were added per well. Then, 20 µL of diluted ACE-1 enzyme solution was added to each well. The total volume of each well was adjusted to 100 µL and the plate was incubated at 37 °C for 15 min. After the incubation period, 25 µL of the reaction mixture (substrate mixture and ACE-1 assay buffer) were added to the samples, and the absorbance was read in kinetic mode at 345 nm for 60 min at 37 °C (Multiskan SkyHigh, Thermo Scientific). Captopril (22 ng/mL) was used as the positive control. The reaction inhibition percentage was calculated and the IC50 was determined (GraphPad Prism 9.4.0, GraphPad Software). The experiments were carried out in three independent assays and the results are expressed as mean ± SD.

in vitro = format: cell-based, murine; conditions: for IC50 at 24 h: mouse
Procedure: RAW 264.7 (ATCC TIB-71) murine macrophage-like cells were cultured in high-glucose Dulbecco’s modified Eagle’s medium (DMEM, Sigma-Aldrich) supplemented with 10% fetal bovine serum (FBS, Corning) and 1% penicillin/streptomycin (Corning). Cells were grown under standard culture conditions in a 5% CO2 incubator at 37 °C (MCO-170AC incubator; PHC Corporation, Tokyo, Japan), and were sub-cultured every two or three days when it was noticed that the cells had reached around 80% confluence. The assays were performed in cell passages from passages 9 to 21 to avoid phenotypic and genetic instability. Unless otherwise stated, all treatments were carried out with DMEM supplemented with 1% penicillin/streptomycin only (serum-free conditions). The cytotoxicity of the peptides towards RAW 264.7 cells was evaluated using the colorimetric 3-(4,5-dimethylthiazol-2-yl)-2,5-diphenyl tetrazolium bromide (MTT) assay. The assay was performed according to Mosmann, with a few modifications. Briefly, cells were seeded in a 96-well plate at a density of 2.5 × 10^3 cells per well and incubated for 24 h (5% CO2, 37 °C). After the incubation period, the medium was removed and replaced with different concentrations of the peptides’ aqueous solutions diluted in fresh FBS-free DMEM to the final concentrations of 1–0.005 mg/mL in each well. Following another 24 h incubation period, 10 µL of a 5 mg/mL stock solution of 3-(4,5-Dimethylthiazol-2-yl)-2,5-diphenyltetrazolium bromide (MTT; Alfa Aesar) was added to each well, and the plate was incubated for 3 h (5% CO2, 37 °C). Dimethyl sulfoxide (DMSO, Thermo Fisher Scientific) was used to dissolve the formazan crystals formed by the intracellular reduction of MTT. The absorbance was measured at a dual wavelength of 570/690 nm using a Multiskan SkyHigh microplate reader (Thermo Fisher Scientific). The percentage of viable cells was calculated and the concentration of each peptide able to inhibit 50% of cell viability (IC50) was determined. The experiments were carried out in three independent assays, and the results are shown as mean ± standard deviation (SD).

[1] = test system: spontaneously hypertensive rats; parameters: method as in PMID 16830788; conditions: cited from earlier work
ACE-1 = conditions: cited from earlier work
[2] = test system: O2•− production in LPS-stimulated RAW 264.7 cells; test: Intracellular superoxide production (NBT assay) in LPS-stimulated macrophages; format: cell-based, murine; conditions: at 10 µg/mL
Procedure: Considering the link between oxidative stress and inflammation, both the antioxidant and the anti-inflammatory potential of the selected peptides was determined in cellulo using macrophage-like cells (RAW 264.7 cell line) stimulated with lypopolysaccharides (LPSs) from Escherichia coli. […] In other words, RAW 264.7 cells are activated by foreign stimuli like, e.g., exposure to LPSs. This activation is initiated by the binding of LPSs to cell membrane receptors, which triggers signaling pathways that will result in the generation of proinflammatory mediators (e.g., nitric oxide) and cytokines such as interleukin (IL)-6, IL-8, tumor necrosis factor-alpha (TNF)-α [41, 42]. Since proinflammatory mediators are held in several metabolic pathways, including the production of reactive oxygen species (ROS), e.g., the radical-anion superoxide (O2^•−), LPS exposure also leads to oxidative stress. […]
The potential inhibitory effect of the peptides on superoxide radical (O2^−) by RAW 264.7 cells activated by LPS (1 µg/mL) was evaluated according to Mitra et al. with some modifications. […] The absorbance was measured in a microplate reader at a dual wavelength of 620/700 nm. […] The experiments were performed in three independent assays and the results were expressed as a percentage of O2^- production. […]

[3] = FRAP (ferric reducing antioxidant power) assay
Procedure: The antioxidant power of a given compound is not limited to its radical-scavenging activity. In fact, the ferric reducing antioxidant power (FRAP) assay, is a well-established test to measure a compound’s ability to act as a reductant in a colorimetric redox reaction, where ferric (Fe^3+) ions are reduced to the ferrous (Fe^2+) state in the acidic medium.
The ferric-reducing antioxidant power (FRAP) was determined using a FRAP kit (Sigma-Aldrich) with minor modifications to the manufacturer’s instructions. Briefly, in a 96-well plate, 5 µL of peptides’ aqueous solutions at different concentrations (50–0.05 µg/mL) was added per well. Then, 95 µL of the reaction cocktail (FRAP assay buffer, FeCl3 solution, and FRAP probe) was added to each well. The absorbance was measured at 594 nm in kinetic mode (Multiskan SkyHigh, Thermo Fisher Scientific) for 60 min, at 37 °C. A ferrous standard curve was plotted with Ferrous ammonium sulfate at 0, 4, 8, 12, 16, and 20 nmol/well, and the absorbances of each sample were compared to the standard curve. Quercetin (100–0.1 µg/mL in ethanol) was used as a positive control. All measurements were performed in three independent experiments. Data are shown as mean ± SD.

[4] = DPPH• radical scavenging assay; conditions: relative concentration to reduce 50% of initial DPPH•; mean ± SD, n = 3
Procedure: The free radical-scavenger activity was determined by the DPPH^• assay, according to Oliveira et al.. Briefly, in a 96 well-plate, 19.4 µL of aqueous solutions of the peptides at different concentrations (100–0.1 µg/mL) was added per well. Then, 175 µL of an ethanolic solution of 2,2-diphenyl-1-picrylhydrazyl radical (DPPH^•, Merck) was added to the wells ([…]—90 µM for final concentration in the experiment). The absorbance was read at 515 nm (Multiskan SkyHigh multiplate reader, Thermo Fisher Scientific) in kinetic mode for 60 min and at room temperature. The percentage of remaining DPPH^• was plotted against the peptides’ concentrations and the amount of test compounds necessary to decrease by 50% the initial concentration of DPPH (RIC50) was calculated (GraphPad Prism 9.4.0, GraphPad Software). Quercetin (100–0.1 µg/mL in ethanol) was used as a positive control.
The DPPH^• radical scavenging activity determines the ability of an antiradical compound to neutralize DPPH^• radical to its reduced form (DPPH-H) and is usually expressed as the concentration of the compound required to reduce the DPPH^• radical by 50% (IC₅₀). […]

[5] = test system: NO production in LPS-stimulated RAW 264.7 cells; test: Griess assay (nitric oxide production) in LPS-stimulated macrophages; format: cell-based, murine; conditions: at 10 µg/mL
Excerpt: The Griess assay is a classical indirect method to measure the production of nitric oxide through the quantification of nitrite anions. As previously mentioned, NO is an inflammatory biomarker that can be produced when LPS-activated macrophages produce proinflammatory mediators and cytokines, which in turn elicit the production of reactive species like ROS and the expression/activity of relevant enzymes, including the nitric oxide synthase (NOS).
The Nitrite Assay Kit (Griess Reagent, Sigma-Aldrich) was used to determine the influence of peptide treatments on nitric oxide production by RAW 264.7 cells activated by LPS (1 µg/mL). To this end, peptide solutions at different concentrations (50–3.12 µg/mL—serial dilution) in an FBS-free medium were used. Briefly, 7 × 10^4 RAW 264.7 cells per well were seeded in a 96-well plate and incubated for 24 h (5% CO2, 37 °C). On the next day, the medium was removed and replaced with different concentrations of the peptides. After another 24 h incubation period (5% CO2, 37 °C), 50 µL of culture supernatant was transferred to a 96-well plate. […] The absorbance was measured at 540 nm using a microplate reader (Multiskan SkyHigh, Thermo Scientific) A nitrite standard curve was plotted with nitrite standards at 0, 2, 4, 8, and 10 nmol/well, and the absorbances of each sample were compared to the standard curve. […]

ACE-1 enzyme, sequence (P12821 30-1306): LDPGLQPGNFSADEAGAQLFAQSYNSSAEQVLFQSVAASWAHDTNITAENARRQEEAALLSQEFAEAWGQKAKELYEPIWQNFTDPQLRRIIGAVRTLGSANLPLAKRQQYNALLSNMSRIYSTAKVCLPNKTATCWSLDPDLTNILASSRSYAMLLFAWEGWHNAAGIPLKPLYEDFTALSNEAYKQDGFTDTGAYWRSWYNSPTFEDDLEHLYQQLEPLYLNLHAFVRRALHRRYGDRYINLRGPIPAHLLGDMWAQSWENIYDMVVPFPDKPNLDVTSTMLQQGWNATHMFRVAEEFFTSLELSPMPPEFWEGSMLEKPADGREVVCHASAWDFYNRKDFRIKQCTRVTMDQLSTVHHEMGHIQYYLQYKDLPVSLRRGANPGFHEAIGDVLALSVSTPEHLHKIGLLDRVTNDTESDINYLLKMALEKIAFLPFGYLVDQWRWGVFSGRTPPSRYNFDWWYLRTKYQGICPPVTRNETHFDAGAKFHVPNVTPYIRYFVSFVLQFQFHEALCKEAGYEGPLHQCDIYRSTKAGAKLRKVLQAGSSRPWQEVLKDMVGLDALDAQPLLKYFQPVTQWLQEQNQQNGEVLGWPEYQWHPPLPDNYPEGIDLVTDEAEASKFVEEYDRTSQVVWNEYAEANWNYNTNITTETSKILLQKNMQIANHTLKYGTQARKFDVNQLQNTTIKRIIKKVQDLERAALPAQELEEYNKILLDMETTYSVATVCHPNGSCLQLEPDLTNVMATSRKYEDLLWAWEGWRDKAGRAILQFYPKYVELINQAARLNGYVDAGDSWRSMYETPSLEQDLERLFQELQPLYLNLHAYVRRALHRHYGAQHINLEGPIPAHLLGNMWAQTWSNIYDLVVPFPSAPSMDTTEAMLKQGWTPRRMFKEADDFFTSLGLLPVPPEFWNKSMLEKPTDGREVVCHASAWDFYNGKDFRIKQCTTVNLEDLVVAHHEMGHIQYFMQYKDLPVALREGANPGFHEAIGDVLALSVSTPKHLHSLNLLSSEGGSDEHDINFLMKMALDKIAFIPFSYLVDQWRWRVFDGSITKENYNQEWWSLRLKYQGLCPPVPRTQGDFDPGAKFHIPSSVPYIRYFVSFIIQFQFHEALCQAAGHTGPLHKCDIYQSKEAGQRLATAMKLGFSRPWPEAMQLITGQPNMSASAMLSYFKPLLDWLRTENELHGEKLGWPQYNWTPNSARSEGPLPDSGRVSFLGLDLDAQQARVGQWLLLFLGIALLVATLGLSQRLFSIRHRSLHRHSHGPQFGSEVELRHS

Work on “GRRRRSVQWCA-NH2 [rhLF-1-11, GRRRRSVQWCA-NH2]” yielded an IC50 (ACE-1 enzyme) of 57.5 µM and an IC50 at 24 h (in vitro) of 355 ± 12 µg/mL.

For “WNLLRQAQEKFGKDKSP-NH2 [nhLF-268-284, WNLLRQAQEKFGKDKSP-NH2]”, the IC50 (ACE-1 enzyme) was 25.6 µM.

For LRPVAA, the blood pressure [1] is given as “reducing blood pressure” and the “ACE-1 inhibition in vitro” value (ACE-1) is given as “effective in inhibiting ACE-1 in vitro”.

In the case of “APRKNVRWCTI-NH2 [bLF-1-11, APRKNVRWCTI-NH2]”, the IC50 at 24 h (in vitro) is reported as 290 ± 5 µg/mL.

With “WKLLSKAQEKFGKNKSR-NH2 [bLF-268-284, WKLLSKAQEKFGKNKSR-NH2]” the IC50 (ACE-1 enzyme) was greater than 48.8 µM.

With CSCC[C@H](NC(=O)[C@H](CCCNC(=N)N)NC(=O)[C@H](Cc1c[nH]c2ccccc12)NC(=O)[C@H](CCC(N)=O)NC(=O)[C@H](Cc1c[nH]c2ccccc12)NC(=O)[C@H](CCCNC(=N)N)NC(=O)[C@H](CCCNC(=N)N)NC(=O)[C@H](CS)NC(=O)[C@H](CCCCN)NC(=O)[C@@H](N)Cc1ccccc1)C(=O)N[C@@H](CCCCN)C(=O)N[C@@H](CCCCN)C(=O)N[C@@H](CC(C)C)C(=O)NCC(=O)N[C@@H](C)C(N)=O [bLF-17-31, FKCRRWQWRMKKLGA-NH2] the IC50 (ACE-1 enzyme) was 31.6 µM and the IC50 (in vitro) was 135 ± 6 µg/mL (≈ 67.7 µM).

For O=c1c(O)c(-c2ccc(O)c(O)c2)oc2cc(O)cc(O)c12 [Quercetin], the “reduction of O2•− production compared to the control (LPS +)” value [2] was “about 25%”, the “FRAP (mM Ferrous Equivalents)” value ([3]; 0.05 µg/mL) was 0.85 ± 0.25 mM Ferrous Equivalents and the “FRAP (mM Ferrous Equivalents)” value ([3]; 0.5 µg/mL) was 1.40 ± 0.23 mM Ferrous Equivalents. The “FRAP (mM Ferrous Equivalents)” value ([3]; 5 µg/mL) was 8.02 ± 0.57 mM Ferrous Equivalents, the “FRAP (mM Ferrous Equivalents)” value ([3]; 50 µg/mL) was 16.09 ± 0.87 mM Ferrous Equivalents and the IC50 at 24 h (in vitro) was 65 ± 2 µg/mL (≈ 215 µM). For the same molecule, the “DPPH Radical Scavenging Activity (RIC50 mol/mol DPPH)” value [4] was 0.09 ± 0.02 mol/mol DPPH and the “NO levels in LPS-activated cells” value [5] was “significantly reduce NO levels”.

With “AKCAKFQRNMKKVRG-NH2 [aLF-17-31, AKCAKFQRNMKKVRG-NH2]” the IC50 (ACE-1 enzyme) was 31.2 µM.

Reference: publication PMC11816975, “Bioactive Peptides from Milk Proteins with Antioxidant, Anti-Inflammatory, and Antihypertensive Activities” (Foods, 2025)
